Assay results taken from article PMC3328449, “Inhibition of Diacylglycerol–Sensitive TRPC Channels by Synthetic and Natural Steroids” (PLoS ONE, 2012).

Tests used:
A7r5 cells = assay: Fura-2 measurement of AVP-induced Ca2+ release in A7r5 cells; type: cell-based; settings: 10 µM, 5 min pre-incubation, calcium-free solution, 100 nM AVP
Protocol: A7r5 cells (ATCC, Rockville, USA) were maintained in DMEM (with glutaMAX I, 4.5 g/l glucose and […] sodium pyruvate), supplemented with 10% (v/v) fetal bovine serum (PAA, Pasching, Austria). Cells grown on poly-L-lysine-coated 24-mm glass coverslips were loaded in cell culture medium supplemented with 2 µM fura-2 AM (30 min, 37°C) and subsequently allowed to de-esterify in standard extracellular solution (15 min, 37°C). Changes in [Ca^2+]i were measured using a monochromator-based imaging system (T.I.L.L. Photonics, Gräfelfing, Germany) mounted on an inverted Axiovert 200 microscope (Zeiss, Göttingen, Germany). Fluorescence was excited alternating at 340 nm and 380 nm, long-pass filtered at 440 nm and captured at 2 s intervals. The 340/380 nm excitation ratio of selected cell areas was calculated with T.I.L.L. vision 4.0 software (T.I.L.L. Photonics) after correction for background fluorescence.

hTRPC3 = target: T1, hTRPC3 (Homo sapiens, UniProt Q13507); assay: Whole-cell patch clamp, AlF4- evoked TRPC3 currents; type: cell-based; settings: 10 µM, AlF4- infusion
T1 construct: expressed in transfected cells
T1 sequence (Q13507 1-848 isoform Q13507-3): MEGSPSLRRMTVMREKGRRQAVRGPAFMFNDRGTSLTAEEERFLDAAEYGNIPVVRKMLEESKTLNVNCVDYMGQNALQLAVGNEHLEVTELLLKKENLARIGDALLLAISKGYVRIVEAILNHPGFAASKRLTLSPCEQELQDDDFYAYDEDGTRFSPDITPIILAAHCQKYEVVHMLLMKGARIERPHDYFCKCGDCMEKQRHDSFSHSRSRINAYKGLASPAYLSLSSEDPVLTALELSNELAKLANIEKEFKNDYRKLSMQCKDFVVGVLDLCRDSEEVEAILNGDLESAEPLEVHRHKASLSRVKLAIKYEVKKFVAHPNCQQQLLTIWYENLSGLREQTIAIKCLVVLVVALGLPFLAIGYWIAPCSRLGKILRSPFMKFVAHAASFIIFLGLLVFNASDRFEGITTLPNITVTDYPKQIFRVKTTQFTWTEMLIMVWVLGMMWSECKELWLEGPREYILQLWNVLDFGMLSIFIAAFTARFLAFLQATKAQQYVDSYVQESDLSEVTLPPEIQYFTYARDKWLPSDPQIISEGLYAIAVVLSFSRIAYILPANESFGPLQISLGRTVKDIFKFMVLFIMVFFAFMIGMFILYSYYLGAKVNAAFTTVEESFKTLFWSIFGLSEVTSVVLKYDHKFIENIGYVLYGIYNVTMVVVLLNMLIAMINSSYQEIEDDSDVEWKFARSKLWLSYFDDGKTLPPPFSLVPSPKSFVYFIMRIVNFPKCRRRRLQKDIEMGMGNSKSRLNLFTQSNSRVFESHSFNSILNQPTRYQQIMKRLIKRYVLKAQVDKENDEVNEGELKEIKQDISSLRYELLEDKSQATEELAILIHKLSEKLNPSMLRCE
Source text: hTRPC3 (GenBank accession number NM_003305) was stably expressed in chinese hamster ovary (CHO) cells using a proprietary high expression vector (Steinbeis –Transferzentrum für Angewandte Biologische Chemie, Mannheim, Germany).
The whole-cell patch clamp technique was employed to measure ion currents from single cells. Heat-polished patch pipettes with resistances of 2–4 MΩ were pulled from borosilicate glass capillaries (Hilgenberg, Malsfeld, Germany) using a DMZ-Universal puller (Zeitz-Instruments, Munich, Germany) and filled with standard intracellular solution containing: 120 mM CsOH, 120 mM gluconic acid, 2 mM MgCl2, 3 mM CaCl2, 5 mM Cs4-BAPTA, 10 mM HEPES (pH 7.4 adjusted with gluconic acid). For agonist-independent stimulation of TRPC currents the intracellular solution was supplemented with 30 µM AlCl3 and 10 mM NaF and cells were infused with AlF4 ^− through the patch pipette. […]
Cells grown on poly-L-lysine-coated coverslips were continuously superfused with extracellular solution and substances were applied using an ALA BPS-8 perfusion system (ALA Scientific Instruments, Westbury, USA). […] Cells were held at −70 mV, and current-voltage (I–V) relationships were routinely measured every 2 or 3 s by applying voltage ramps (180 ms) from −100 mV to +80 mV. […]

Inhibition of TRPC3 currents (hTRPC3): almost completely inhibited
SMILES: C#C[C@]1(OC(C)=O)CC[C@H]2[C@@H]3CCC4=CC(=NO)CC[C@@H]4[C@H]3CC[C@@]21CC (mixture of isomers) [norgestimate]
Sensitivity of AVP-induced Ca2+ release (A7r5 cells): not sensitive
